What is called EC50 is the concentration that produces a half-maximal response.

Molecules are shown by their SMILES.

Among the data in patent US20260007758A1, “SO[…]-2 RECEPTOR (SST2R) NON-PEPTIDE DRUG CONJUGATES AND USES THEREOF” (Crinetics Pharmaceuticals, Inc., priority 2024, published 2026) are EC50 values, retold here.

Type in all cases: cell-based
For assay [1], the target named is T1, human somatostatin receptor subtype 2 (Homo sapiens, UniProt P30874).
T1 construct: expressed in transfected cells
T1 sequence (P30874 whole entry): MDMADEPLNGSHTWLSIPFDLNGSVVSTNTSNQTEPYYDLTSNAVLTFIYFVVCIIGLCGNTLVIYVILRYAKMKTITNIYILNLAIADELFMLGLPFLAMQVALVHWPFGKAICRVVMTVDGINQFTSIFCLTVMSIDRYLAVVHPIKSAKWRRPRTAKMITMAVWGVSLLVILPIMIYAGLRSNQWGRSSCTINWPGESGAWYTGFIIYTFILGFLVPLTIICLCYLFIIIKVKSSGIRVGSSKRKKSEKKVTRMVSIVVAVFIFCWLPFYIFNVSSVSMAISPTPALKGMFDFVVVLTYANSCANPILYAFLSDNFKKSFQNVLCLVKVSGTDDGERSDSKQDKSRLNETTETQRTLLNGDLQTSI
Description: Functional assay for SSTR2 agonists (HTRF cAMP). To be noted: CHO-K1 cells stably expressing human SST2; NKH477-stimulated cAMP; 20 min at 37 C; read-out: hSST2 cAMP Avg EC50. A digest of the protocol:
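CHO-K1 cells stably expressing human SSTR2 treated with compound (typically 0-10,000 nM final) for 20 min at 37 °C. Lysate cAMP measured by HTRF (665/620 nm ratio), converted via standard curve; EC50 from cAMP vs concentration.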

The next assay addresses T2, SST2 (Homo sapiens, UniProt P30874).
T2 construct: host or cells: PathHunter CHO-K1 SST2 cells
Kind of assay: PathHunter CHO-K1 SST2 Internalization Assay. Conditions: PathHunter CHO-K1 SST2 cells; 90 min at 37 C; luminescence; read-out: Internalization EC50. Summed up:
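CHO-K1 cells expressing human SST2, 2500 cells/well, grown 48 h, then exposed 90 min at 37 C to 11-point 1:3 NDC dilutions (final top 10 uM). Beta-Glo luminescence after 60 min at room temperature; four-parameter IC50, duplicate mean, background-corrected.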

Assay [2] has as its system NCI-H524 human small cell lung cancer cells. Description: H524 assay: inhibition of cell proliferation (CellTiter Glo). Conditions: 2 h treatment, washout, additional 70 h incubation. Summed up: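 NCI-H524 cells were exposed for 2 h to NDC in an 11-point two-fold series starting at 1 uM. The drug was then washed out and cells grew a further 70 h. CellTiter Glo luminescence gave % inhibition versus untreated control, and IC50 came from a four-parameter nonlinear regression.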

T2 sequence (P30874 whole entry): as above

Turning to `CC[C@H](C)[C@@H]([C@@H](CC(=O)N1CCC[C@H]1[C@H](OC)[C@@H](C)C(=O)N[C@H](C)[C@@H](O)c1ccccc1)OC)N(C)C(=O)[C@@H](NC(=O)[C@H](C(C)C)N(C)C(=O)OCc1ccc(NC(=O)[C@H](C)NC(=O)[C@@H](NC(=O)CCOCCC(=O)N(C)CC(=O)NCCNc2ncc(-c3cc(C)cc(F)c3)c(N3CCC(N)CC3)c2-c2nc3ccc(Cl)cc3[nH]2)C(C)C)c(O[C@@H]2O[C@H](C(=O)NCC(=O)O)[C@@H](O)[C@H](O)[C@H]2O)c1)C(C)C` [Compound 42], the figures for the EC50 (in assay [1]; on SST2; in assay [2]) were 0.1 nM, 3.8 nM and 25 nM, respectively.
Consider `CC[C@H](C)[C@@H]([C@@H](CC(=O)N1CCC[C@H]1[C@H](OC)[C@@H](C)C(=O)N[C@H](C)[C@@H](O)c1ccccc1)OC)N(C)C(=O)[C@@H](NC(=O)[C@H](C(C)C)N(C)C(=O)OCc1ccc(NC(=O)[C@H](CCCNC(N)=O)NC(=O)[C@@H](NC(=O)CCOCCC(=O)NCCNc2ncc(-c3cc(C)cc(F)c3)c(N3CCC(N)CC3)c2-c2nc3ccc(Cl)cc3[nH]2)C(C)C)c(O[C@@H]2O[C@H](C(=O)NCCC(=O)O)[C@@H](O)[C@H](O)[C@H]2O)c1)C(C)C` [Compound 49], for which the EC50 in assay [1] was 0.14 nM; at SST2, 3.4 nM; in assay [2] it was 9.4 nM.
For the compound `CC[C@H](C)[C@@H]([C@@H](CC(=O)N1CCC[C@H]1[C@H](OC)[C@@H](C)C(=O)N[C@H](C)[C@@H](O)c1ccccc1)OC)N(C)C(=O)[C@@H](NC(=O)[C@H](C(C)C)N(C)C(=O)OCc1ccc(NC(=O)[C@H](CCCNC(N)=O)NC(=O)[C@@H](NC(=O)c2cc(NC(=O)CCOCCOCCOCCOCCC(=O)NCCNc3ncc(-c4cc(C)cc(F)c4)c(N4CCC(N)CC4)c3-c3nc4ccc(Cl)cc4[nH]3)cc(C(=O)NCC(=O)O)c2)C(C)C)cc1)C(C)C` [Compound 150], the EC50 in assay [1] stood at 0.083 nM; at SST2, 8.3 nM; in assay [2] it was 53 nM.
The corresponding values for `CC[C@H](C)[C@@H]([C@@H](CC(=O)N1CCC[C@H]1[C@H](OC)[C@@H](C)C(=O)N[C@H](C)[C@@H](O)c1ccccc1)OC)N(C)C(=O)[C@@H](NC(=O)[C@H](C(C)C)N(C)C(=O)OCc1ccc(NC(=O)[C@H](C)NC(=O)[C@@H](NC(=O)CCOCCC(=O)NCCNc2ncc(-c3cc(C)cc(F)c3)c(N3CCC(N)CC3)c2-c2cc3ccc(F)cc3[nH]2)C(C)C)c(O[C@@H]2O[C@H](C(=O)O)[C@@H](O)[C@H](O)[C@H]2O)c1)C(C)C` [Compound 116] are 0.19 nM, 14 nM and 21 nM.
The like results for `CC[C@H](C)[C@@H]([C@@H](CC(=O)N1CCC[C@H]1[C@H](OC)[C@@H](C)C(=O)N[C@H](C)[C@@H](O)c1ccccc1)OC)N(C)C(=O)[C@@H](NC(=O)[C@H](C(C)C)N(C)C(=O)OCc1ccc(NC(=O)[C@H](CCCNC(N)=O)NC(=O)[C@@H](NC(=O)c2cc(NCCOCCC(=O)NCCNc3ncc(-c4cc(C)cc(F)c4)c(N4CCC(N)CC4)c3-c3nc4ccc(Cl)cc4[nH]3)cc(C(=O)NCC(N)=O)c2)C(C)C)cc1)C(C)C` [Compound 186] were, in that order, 0.26 nM, 2.7 nM and 470 nM.
The like results for `CC[C@H](C)[C@@H]([C@@H](CC(=O)N1CCC[C@H]1[C@H](OC)[C@@H](C)C(=O)N[C@H](C)[C@@H](O)c1ccccc1)OC)N(C)C(=O)[C@@H](NC(=O)C(C(C)C)N(C)C(=O)OCc1ccc(NC(=O)[C@H](CCCNC(N)=O)NC(=O)[C@@H](NC(=O)CCOCCC(=O)NCCNc2ncc(-c3cc(C)cc(F)c3)c(N3CCC(N)CC3)c2-c2nc3ccc(Cl)cc3[nH]2)C(C)C)c(O[C@@H]2O[C@H](C(=O)N3CCN(C)CC3)[C@@H](O)[C@H](O)[C@H]2O)c1)C(C)C` (stereo partly drawn) [Compound 226] were, in that order, 0.28 nM, 9.3 nM and 4.3 nM.
Regarding `CC[C@H](C)[C@@H]([C@@H](CC(=O)N1CCC[C@H]1[C@H](OC)[C@@H](C)C(=O)N[C@H](C)[C@@H](O)c1ccccc1)OC)N(C)C(=O)[C@@H](NC(=O)[C@H](C(C)C)N(C)C(=O)OCc1ccc(NC(=O)[C@H](CCCNC(N)=O)NC(=O)[C@@H](NC(=O)CCOCCOCCC(=O)NCCNc2ncc(-c3cc(C)cc(F)c3)c(N3CCC(N)CC3)c2-c2nc3ccc(Cl)cc3[nH]2)C(C)C)cc1C(=O)NCCNC(=O)CCCCCCCCCCC(=O)O)C(C)C` [Compound 83], the EC50 in assay [1] worked out at 0.53 nM; on SST2, 7 nM; in assay [2], 310 nM.
The like results for `CC[C@H](C)[C@@H]([C@@H](CC(=O)N1CCC[C@H]1[C@H](OC)[C@@H](C)C(=O)N[C@H](C)[C@@H](O)c1ccccc1)OC)N(C)C(=O)[C@@H](NC(=O)[C@H](C(C)C)N(C)C(=O)OCc1ccc(NC(=O)[C@H](CCCNC(N)=O)NC(=O)[C@@H](NC(=O)[C@H](CCC(=O)O)NC(=O)CCOCCOCCOCCOCCC(=O)NCCNc2ncc(-c3cc(C)cc(F)c3)c(N3CCC(N)CC3)c2-c2nc3ccc(Cl)cc3[nH]2)C(C)C)cc1C(=O)O)C(C)C` [Compound 3] were, in that order, 0.19 nM, 6.8 nM and 680 nM.
The like results for `CC[C@H](C)[C@@H]([C@@H](CC(=O)N1CCC[C@H]1[C@H](OC)[C@@H](C)C(=O)N[C@H](C)[C@@H](O)c1ccccc1)OC)N(C)C(=O)[C@@H](NC(=O)[C@H](C(C)C)N(C)C(=O)OCc1ccc(NC(=O)[C@H](C)NC(=O)[C@@H](NS(=O)(=O)C[C@H](C)NC(=O)CCOCCC(=O)NCCNc2ncc(-c3cc(C)cc(F)c3)c(N3CCC(N)CC3)c2-c2nc3ccc(Cl)cc3[nH]2)C(C)C)c(O[C@@H]2O[C@H](C(=O)N(C)CC(=O)O)[C@@H](O)[C@H](O)[C@H]2O)c1)C(C)C` [Compound 221] were, in that order, 0.15 nM, 8.8 nM and 27 nM.
For `CC[C@H](C)[C@@H]([C@@H](CC(=O)N1CCC[C@H]1[C@H](OC)[C@@H](C)C(=O)N[C@H](C)[C@@H](O)c1ccccc1)OC)N(C)C(=O)[C@@H](NC(=O)[C@H](C(C)C)N(C)C(=O)OCc1ccc(NC(=O)[C@H](CCCNC(N)=O)NC(=O)[C@@H](NC(=O)CCOCCC(=O)N(C)CC(=O)NCCNc2ncc(-c3cc(C)cc(F)c3)c(N3CCC(N)CC3)c2-c2nc3ccc(Cl)cc3[nH]2)C(C)C)c(O[C@@H]2O[C@H](C(=O)NCCO)[C@@H](O)[C@H](O)[C@H]2O)c1)C(C)C` [Compound 207], the EC50 stood at 0.23 nM in assay [1], 5.9 nM on SST2 and 8.4 nM in assay [2].
The corresponding values for `CC[C@H](C)[C@@H]([C@@H](CC(=O)N1CCC[C@H]1[C@H](OC)[C@@H](C)C(=O)N[C@H](C)[C@@H](O)c1ccccc1)OC)N(C)C(=O)[C@@H](NC(=O)[C@H](C(C)C)N(C)C(=O)OCc1ccc(NC(=O)[C@H](CCCNC(N)=O)NC(=O)[C@@H](NC(=O)c2cn(CCOCCC(=O)NCCNc3ncc(-c4cc(C)cc(F)c4)c(N4CCC(N)CC4)c3-c3nc4cc(Cl)ccc4[nH]3)nn2)C(C)C)c(O[C@@H]2O[C@H](C(=O)N3CCNCC3)[C@@H](O)[C@H](O)[C@H]2O)c1)C(C)C` [Compound 237] are 0.15 nM, 8.4 nM and 8.2 nM.
`CC[C@H](C)[C@@H]([C@@H](CC(=O)N1CCC[C@H]1[C@H](OC)[C@@H](C)C(=O)N[C@H](C)[C@@H](O)c1ccccc1)OC)N(C)C(=O)[C@@H](NC(=O)C(C(C)C)N(C)C(=O)OCc1ccc(NC(=O)[C@H](CCCNC(N)=O)NC(=O)[C@@H](NC(=O)CCOCCC(=O)NCCNc2ncc(-c3cc(C)cc(F)c3)c(N3CCC(N)CC3)c2-c2nc3ccc(Cl)cc3[nH]2)C(C)C)c(O[C@@H]2O[C@H](C(=O)N3CCN(CCO)CC3)[C@@H](O)[C@H](O)[C@H]2O)c1)C(C)C` (stereo partly drawn) [Compound 229]: the concentration giving a half-maximal response (EC50) in assay [1] amounted to 0.1 nM; on SST2, 4.8 nM; in assay [2], 4 nM.
For the compound `CC[C@H](C)[C@@H]([C@@H](CC(=O)N1CCC[C@H]1[C@H](OC)[C@@H](C)C(=O)N[C@H](C)[C@@H](O)c1ccccc1)OC)N(C)C(=O)[C@@H](NC(=O)C(C(C)C)N(C)C(=O)OCc1ccc(NC(=O)[C@H](CCCNC(N)=O)NC(=O)[C@@H](NC(=O)CCOCCC(=O)NCCNc2ncc(-c3cc(C)cc(F)c3)c(N3CCC(N)CC3)c2-c2nc3ccc(Cl)cc3[nH]2)C(C)C)c(O[C@@H]2O[C@H](C(=O)N3CC(N)C3)[C@@H](O)[C@H](O)[C@H]2O)c1)C(C)C` (stereo partly drawn) [Compound 232], the figures for the EC50 (in assay [1]; on SST2; in assay [2]) were 0.15 nM, 5.2 nM and 5 nM, respectively.
The corresponding values for `CC[C@H](C)[C@@H]([C@@H](CC(=O)N1CCC[C@H]1[C@H](OC)[C@@H](C)C(=O)N[C@H](C)[C@@H](O)c1ccccc1)OC)N(C)C(=O)[C@@H](NC(=O)[C@H](C(C)C)N(C)C(=O)OCc1ccc(NC(=O)[C@H](CCCNC(N)=O)NC(=O)[C@@H](NC(=O)[C@H](CCC(=O)O)NC(=O)CCOCCC(=O)NCCNc2ncc(-c3cc(C)cc(F)c3)c(N3CCC(N)CC3)c2-c2nc3ccc(Cl)cc3[nH]2)C(C)C)c(OC)c1)C(C)C` [Compound 16] are 0.083 nM, 7.8 nM and 160 nM.
